# Where “and” joins values, the source holds several entries; their conditions need not be identical. Identical values can stand only once. Marks after values point to notes of the source that are not given here.
# Experiments:
# [1] = biological target: T1, GluN1-4a(H134A)/GluN2B NMDA receptor (Rattus norvegicus, UniProt P35439+Q00960, H134A); assay: TEVC concentration–response, GluN1-4a(H134A) mutant; type: cell-based; settings: pH 7.6; BAPTA (Table 3)
# T1 construct: compared to that observed for full-length receptors in TEVC recordings; expressed in transfected cells; host or cells: Xenopus laevis oocytes, cRNA injection
# Method: Missense mutations were introduced into rat cDNAs encoding GluN1-4a and GluN2B in the pGEM-HE vector using the QuikChange protocol (Stratagene) using the primers listed in Supplementary Table 2. These plasmids were then linearized with NotI and used as templates for cRNA synthesis (Ambion). A total mass of 5–10 ng cRNA at a 1:2 weight ratio of GluN1-4a and GluN2B transcripts was co-injected into defolliculated Xenopus laevis oocytes (EcoCyte Bioscience). […] Voltage clamp was achieved and current responses were recorded at a holding potential of –40 mV with a two-electrode voltage clamp amplifier (Warner) at room temperature (~23 °C). Currents were low-pass filtered at 10 Hz and digitized at 20 Hz by LabWindows/CVI (National Instruments). Maximal effective concentrations of glutamate and glycine (100 and 30 μM, respectively) were used in all recordings.
# [2] = biological target: GluN1b–GluN2B ATD heterodimer (Xenopus laevis; Rattus norvegicus, UniProt A0A1L8F5J9+Q00960, E186G/INS190[…]/N348D/N350Q/N61Q); assay: ITC, ifenprodil titrated into isolated GluN1b–GluN2B ATD used for crystallization; type: binding; settings: pH 7.6
# [3] = biological target: GluN1b–GluN2B ATD heterodimer (Xenopus laevis; Rattus norvegicus, UniProt A0A1L8F5J9+Q00960, E186G/INS190SKKRNYENLDQLSYDNKRGPK/N348D/N350Q/N61Q); assay: as above; type: binding; settings: pH 7.6
# [4] = biological target: T2, GluN1a–GluN2B ATD heterodimer (UniProt A0A1L8F5J9+Q00960, N348D/N350Q/N61Q); assay: ITC, ligands titrated into isolated GluN1a–GluN2B ATD heterodimer; type: binding, Xenopus GluN1a, rat GluN2B
# T2 construct: the ATD domains of Xenopus GluN1a and rat GluN2B; alkaline phosphatase secretion signal (N); 57 residue linker to the other ATD, with TEV protease sites (cleaved yes); made in house
# Excerpt: In order to directly estimate binding affinities of these inhibitors for their binding site in the GluN1–GluN2B NMDA receptors, we performed ITC using the purified GluN1a–GluN2B ATD proteins titrated with ligands of various N-substituent lengths at pH 7.6 and pH 6.5 to mimic the extreme drop in pH that can occur at the ischemic core[1]–[4] (Fig. 2a, b; Supplementary Figures 2 and 3). Toward this end, we expressed the isolated […] GluN1a–GluN2B ATD heterodimer proteins in GnTI^− HEK293S cells. Here, for clarity we will call the GluN1 ATD with and without exon 5 GluN1b ATD and GluN1a ATD, respectively.
# To efficiently express the ATD domains of Xenopus GluN1a and rat GluN2B, we used the alkaline phosphatase secretion signal and fused the two domains with a 57 residue linker as described elsewhere, with the following modifications: due to an intrinsic thrombin site in the GluN2B ATD, we engineering Tobacco Etch Virus (TEV) protease sites into this construct to remove the linker. In addition, three glycosylation sites were removed by mutating GluN1a Asn61 and Asn371 to Gln, and GluN2B Asn348 was mutated to Asp.
# Cell cultures were maintained at 37 °C with 5% CO2 and grown to a density of 2.0–2.5 × 10^6 cells mL^−1, then infected with baculovirus. Sodium butyrate was added to the infected cells to a final concentration of 5 mM and culture medium containing secreted GluN1a–GluN2B ATD fusion protein was harvested 96 h after infection.
# Cells were removed from the medium by centrifugation and the clarified medium was concentrated and exchanged three times to cold TBS (200 mM NaCl, 20 mM Tris, pH 8.0) using tangential flow filtration with a molecular weight cutoff of 30 kDa (Pall Corporation). […] The following day, glutathione in a 10:1 ratio, reduced:oxidized, was added to the dialyzed protein to a final concentration of 3 mM, along with EDTA, pH 8.0, to a final concentration of 1 mM. Based on the protein yield, a 1:100 ratio of TEV protease (mass:mass, TEV:ATD) was added to the ATD solution and the reaction was incubated for 4 h at 18 °C. Next, EndoF1 endoglycosidase at a 1:5 ratio (mass:mass, EndoF1:ATD) was added to the ATD/TEV mixture and dialyzed overnight at room temperature to 2 L TBS with 10% glycerol and 20 mM imidazole.
# This sample was then dialyzed overnight at 4 °C to 2 L TBS with 20% glycerol. […]
# After dialysis, the protein sample was diluted to 10–15 μM and dimethyl sulfoxide (DMSO) was added to a final concentration of 1.5% (v/v), in order to match that of the ligand solution. […] Dilution enthalpy was calculated from post-saturation injections and subtracted from total heats, and the data were fit using a single-site model with the program OriginLab 7.5.
# [5] = biological target: T3, GluN1-4a(Y109W)/GluN2B NMDA receptor (Rattus norvegicus, UniProt P35439+Q00960, Y109W); assay: TEVC concentration–response, GluN1-4a(Y109W) mutant; type: cell-based; settings: pH 7.6; BAPTA (Table 3)
# T3 construct: compared to that observed for full-length receptors in TEVC recordings; expressed in transfected cells; host or cells: Xenopus laevis oocytes, cRNA injection
# Method: (§1) Missense mutations were introduced into rat cDNAs encoding GluN1-4a and GluN2B in the pGEM-HE vector using the QuikChange protocol (Stratagene) using the primers listed in Supplementary Table 2. These plasmids were then linearized with NotI and used as templates for cRNA synthesis (Ambion). A total mass of 5–10 ng cRNA at a 1:2 weight ratio of GluN1-4a and GluN2B transcripts was co-injected into defolliculated Xenopus laevis oocytes (EcoCyte Bioscience). The oocytes were incubated in Barth’s solution containing 88 mM NaCl, 2.4 mM NaHCO3, 1 mM KCl, 0.33 mM Ca(NO3)2, 0.41 mM CaCl2, 0.82 mM MgSO4, and 5 mM HEPES, at a final pH of 7.4, supplemented with 0.1 mg mL^−1 gentamicin sulfate, 1 μg mL^−1 streptomycin, and 1 U mL^−1 penicillin at 15–19 °C. TEVC current recordings were performed 2–4 days after injection using an extracellular recording solution containing 90 mM NaCl, 10 mM HEPES, 1 mM KCl, 0.5 mM BaCl2, and 0.01 mM EDTA at either pH 6.9 or pH 7.6[39]. Voltage clamp was achieved and current responses were recorded at a holding potential of –40 mV with a two-electrode voltage clamp amplifier (Warner) at room temperature (~23 °C). Currents were low-pass filtered at 10 Hz and digitized at 20 Hz by LabWindows/CVI (National Instruments). Maximal effective concentrations of glutamate and glycine (100 and 30 μM, respectively) were used in all recordings.
# [6] = biological target: T4, GluN1-4a/GluN2B (WT) NMDA receptor (Rattus norvegicus, UniProt P35439+Q00960); assay: TEVC concentration–response in Xenopus oocytes, wild type GluN1-4a/GluN2B; type: cell-based; settings: for Ifenprodil DR, response at 0.01: ifenprodil at 0.01; for Ifenprodil DR, response at 0.01 / Ifenprodil DR, response at 0.03 / Ifenprodil DR, response at 0.1: relative to 100/100 G/G; for Ifenprodil DR, response at 0.03: ifenprodil at 0.03; for Ifenprodil DR, response at 0.1: ifenprodil at 0.1
# T4 construct: compared to that observed for full-length receptors in TEVC recordings; expressed in transfected cells; host or cells: Xenopus laevis oocytes, cRNA injection
# Method: as §1, with “Maximal effective concentrations of glutamate and glycine (100 and 30 μM, respectively) were used in all recordings.” left out
# T2 sequence (Q00960 31-394 N348D limits assumed, other chains not shown): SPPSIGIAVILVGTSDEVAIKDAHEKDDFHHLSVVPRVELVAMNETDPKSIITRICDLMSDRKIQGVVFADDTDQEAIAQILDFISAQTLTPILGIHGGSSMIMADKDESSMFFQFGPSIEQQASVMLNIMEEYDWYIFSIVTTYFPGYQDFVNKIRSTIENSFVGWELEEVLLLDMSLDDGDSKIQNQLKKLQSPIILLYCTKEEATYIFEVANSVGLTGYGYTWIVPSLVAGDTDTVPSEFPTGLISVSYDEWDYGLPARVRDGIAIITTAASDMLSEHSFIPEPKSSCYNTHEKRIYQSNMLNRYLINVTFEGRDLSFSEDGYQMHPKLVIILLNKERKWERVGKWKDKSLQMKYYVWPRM
# T4 sequence (Q00960 27-1482, other chains not shown): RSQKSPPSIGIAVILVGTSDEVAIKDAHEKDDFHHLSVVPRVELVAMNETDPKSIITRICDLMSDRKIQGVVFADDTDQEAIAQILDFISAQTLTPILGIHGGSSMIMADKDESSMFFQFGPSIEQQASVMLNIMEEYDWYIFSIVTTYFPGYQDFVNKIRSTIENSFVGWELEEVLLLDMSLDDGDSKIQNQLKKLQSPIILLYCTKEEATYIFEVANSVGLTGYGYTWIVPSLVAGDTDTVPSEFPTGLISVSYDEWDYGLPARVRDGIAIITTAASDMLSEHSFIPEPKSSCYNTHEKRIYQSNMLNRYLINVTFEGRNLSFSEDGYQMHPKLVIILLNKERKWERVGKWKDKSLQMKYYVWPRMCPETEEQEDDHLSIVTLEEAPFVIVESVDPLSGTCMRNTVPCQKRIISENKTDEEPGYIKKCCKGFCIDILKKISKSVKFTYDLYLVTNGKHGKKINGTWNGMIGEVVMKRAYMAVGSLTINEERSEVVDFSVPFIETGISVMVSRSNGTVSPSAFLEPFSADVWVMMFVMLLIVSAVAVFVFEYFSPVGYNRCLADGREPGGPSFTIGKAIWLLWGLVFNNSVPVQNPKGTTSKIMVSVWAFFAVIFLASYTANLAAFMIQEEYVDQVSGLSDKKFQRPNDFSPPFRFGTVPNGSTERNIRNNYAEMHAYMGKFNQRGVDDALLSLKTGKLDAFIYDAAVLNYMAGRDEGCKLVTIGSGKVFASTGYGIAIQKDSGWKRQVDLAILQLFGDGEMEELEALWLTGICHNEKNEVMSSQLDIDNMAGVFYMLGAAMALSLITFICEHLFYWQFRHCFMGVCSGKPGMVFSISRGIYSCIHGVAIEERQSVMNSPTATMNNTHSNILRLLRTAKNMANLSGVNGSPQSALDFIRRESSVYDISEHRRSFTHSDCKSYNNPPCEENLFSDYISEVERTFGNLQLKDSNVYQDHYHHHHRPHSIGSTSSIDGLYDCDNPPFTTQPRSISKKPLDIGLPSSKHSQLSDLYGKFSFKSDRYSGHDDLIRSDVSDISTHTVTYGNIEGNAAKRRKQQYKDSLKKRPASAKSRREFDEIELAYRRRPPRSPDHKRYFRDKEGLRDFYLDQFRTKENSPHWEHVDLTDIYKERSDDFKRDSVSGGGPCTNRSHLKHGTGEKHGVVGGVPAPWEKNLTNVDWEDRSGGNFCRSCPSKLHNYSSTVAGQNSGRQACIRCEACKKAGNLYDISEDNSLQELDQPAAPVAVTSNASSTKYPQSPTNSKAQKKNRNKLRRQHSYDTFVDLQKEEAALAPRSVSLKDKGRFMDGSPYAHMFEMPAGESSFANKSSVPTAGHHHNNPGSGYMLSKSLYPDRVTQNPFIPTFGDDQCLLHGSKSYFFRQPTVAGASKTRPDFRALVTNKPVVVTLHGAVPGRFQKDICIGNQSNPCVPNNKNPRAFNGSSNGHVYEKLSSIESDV
# T1 sequence (Q00960 27-1482, other chains not shown): as above
# T3 sequence (Q00960 27-1482, other chains not shown): as above
# Sequence of UniProt Q00960 (Q00960 32-394 N348D, other chains not shown): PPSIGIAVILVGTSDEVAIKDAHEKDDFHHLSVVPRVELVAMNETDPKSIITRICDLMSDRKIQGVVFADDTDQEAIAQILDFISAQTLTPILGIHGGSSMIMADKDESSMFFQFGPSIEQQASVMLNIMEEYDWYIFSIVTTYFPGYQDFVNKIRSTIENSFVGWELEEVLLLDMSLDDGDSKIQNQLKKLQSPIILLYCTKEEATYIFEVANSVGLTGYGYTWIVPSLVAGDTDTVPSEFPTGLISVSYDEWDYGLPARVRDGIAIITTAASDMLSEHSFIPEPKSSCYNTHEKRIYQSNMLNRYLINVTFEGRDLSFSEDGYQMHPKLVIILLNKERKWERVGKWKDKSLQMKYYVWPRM
smiles,measurement,setting,value
"CC(C(O)c1ccc(O)cc1)N1CCC(Cc2ccccc2)CC1 (centres unmarked) [Ifenprodil, Ifenprodil hemitartrate]","% response, current at maximal ifenprodil potentiation",[1],"ND, 105%^f nH ND (9)"
same,n (ITC stoichiometry),[2],0.98 ± 0.01
same,Kd,[3],255 ± 11 nM
same,Kd,[4]; pH 6.5,249 ± 16 nM
same,Kd,[4]; pH 7.6,226 ± 15 nM
same,n (ITC stoichiometry),[4]; pH 6.5,0.97 ± 0.01
same,n (ITC stoichiometry),[4]; pH 7.6,1.0 ± 0.01
same,"% response, current at maximal ifenprodil potentiation",[5],"ND, 115%^f nH ND (9)"
same,nH,"[6]; 1-4a/2B WT, pH7.6, BAPTA, ifenprodil",0.8364 and 0.9502 and 1.0632 and 0.8875 and 0.8992 and 1.197 and 1.038
same,"Ifenprodil DR, response at 0.01","[6]; 1-4a/2B WT, pH7.6, BAPTA",89.9 and 98.2 and 90 and 89 and 92.8 and 95.6 and 95.4
same,"Ifenprodil DR, response at 0.01","[6]; 1-4a/2B WT, pH7.6, BAPTA, mean",92.9857
same,"Ifenprodil DR, response at 0.03","[6]; 1-4a/2B WT, pH7.6, BAPTA",78.8 and 96.7 and 76.5 and 75.3 and 82 and 88.4 and 87
same,"Ifenprodil DR, response at 0.03","[6]; 1-4a/2B WT, pH7.6, BAPTA, mean",83.5286
same,"Ifenprodil DR, response at 0.1","[6]; 1-4a/2B WT, pH7.6, BAPTA",64.2 and 90.5 and 49.1 and 54.7 and 63.1 and 64.1 and 66.9
same,"Ifenprodil DR, response at 0.1","[6]; 1-4a/2B WT, pH7.6, BAPTA, mean",64.6571
same,nH,"[6]; 1-4a/2B WT, pH7.6, BAPTA, ifenprodil, mean",0.9818
same,nH,"[6]; Ifenprodil DR, 1-4a/2B WT, pH7.6, BAPTA, single oocyte recordings, row 'mean' = mean",0.8875 and 0.8992 and 1.197 and 1.038 and 0.8364 and 0.9502 and 1.0632
same,nH,"[6]; Ifenprodil DR, 1-4a/2B WT, pH7.6, BAPTA, single oocyte recordings, row 'mean' = mean, mean",0.9818
same,% response,"[6]; current at 1 μM ifenprodil, pH 7.6, BAPTA",35%
same,nH,"[6]; pH 7.6, BAPTA (Table 3)",1.0
